How the values were obtained:
[1] = Stability of compound CC0922; assay type: physicochemical
[2] = tested on: T790M mutant cell line H1975; conditions: background statement; cited from earlier work

SMILES | stability [1] | activity in the T790M mutant cell line H1975 [2]
C=CC(=O)Nc1cccc(-c2ccc3cnc(Nc4ccc(N(C)CCN(C)C)cc4OC)nn23)c1 [CC0922] | very unstable | –
COc1cc2ncnc(Nc3ccc(F)c(Cl)c3)c2cc1OCCCN1CCOCC1 [gefitinib] | – | greater than 3 uM
